Data on ten compounds can be found in ChEMBL document CHEMBL1201862, “PubChem BioAssay data set” (2004).

SMILES strings stand for the structures.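 Cells were grown in 96-well plates and exposed to each compound for 48 hours at five concentrations; endpoints were interpolated linearly between bracketing concentrations, or set to the highest concentration if not reached. Abbreviation: GI50, concentration required for 50% inhibition of growth.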 The source made the active and inactive calls. Cut-off read from the data, not from the text of the source: active = GI50 up to about 1.1 µM and inactive = higher. Bounds are passed on as bounds.

Among the test systems are UACC-257; EKVX; SNB-19; A549; 786-0; IGROV-1; MDA-N; A498; Malme-3M; OVCAR-3; SK-MEL-28; CCRF-CEM; SF-295; UACC-62; SK-MEL-5; NCI-H522; NCI/ADR-RES; SNB-75; BT-549; TK-10.
Holding throughout (assay): NCI anticancer screen, dose series, 48 h

As to `COc1ccc(C2=NOC(N)(c3ccc(OC)cc3)C2)cc1` (stereo not given), the GI50 was > 100 µM (inactive) with UACC-257; > 100 µM (inactive) in the assay on EKVX; > 100 µM (inactive) with SNB-19; > 100 µM (inactive) in the assay on A549; 90.8 µM (inactive) with 786-0; > 100 µM (inactive) in the assay with IGROV-1. Moreover, the GI50 in the assay on MDA-N was > 100 µM (inactive); in the assay on A498, 29 µM (inactive); in the assay with Malme-3M it was 66.5 µM (inactive); in the assay on OVCAR-3 it was > 100 µM (inactive); in the assay on SK-MEL-28, > 100 µM (inactive); in the assay with CCRF-CEM, > 100 µM (inactive). The GI50 with SF-295 was > 100 µM (inactive); in the assay with UACC-62, > 100 µM (inactive); in the assay on SK-MEL-5, 56.9 µM (inactive); with NCI-H522 it was > 100 µM (inactive); with NCI/ADR-RES, > 100 µM (inactive); in the assay with SNB-75, > 100 µM (inactive). In addition, the GI50 with BT-549 and in the assay with TK-10 was > 100 µM (inactive) throughout.
Take `Cc1c(/C=N/NC(=S)Nc2ccc(Cl)cc2)c(=O)n(-c2ccccc2)n1C`: the GI50 in the assay on UACC-257 is > 83.6 µM (inactive); in the assay with EKVX, 22.6 µM (inactive); in the assay with SNB-19 it was 27.9 µM (inactive); with A549 it was 33.7 µM (inactive); with 786-0 it was 16.3 µM (inactive); in the assay on IGROV-1, 16 µM (inactive). Further, the GI50 in the assay on MDA-N is > 100 µM (inactive); with A498, 22.5 µM (inactive); in the assay with Malme-3M, > 34.7 µM (inactive); with OVCAR-3 it was > 42 µM (inactive); with SK-MEL-28, > 100 µM (inactive); with CCRF-CEM, > 75.2 µM (inactive). Besides, the GI50 with SF-295 was 18.4 µM (inactive); with UACC-62, > 48.5 µM (inactive); with SK-MEL-5, 20.1 µM (inactive); in the assay with NCI-H522, 7.08 µM (inactive); in the assay with NCI/ADR-RES, 17.3 µM (inactive); in the assay on SNB-75, 15.9 µM (inactive). For the same compound, the GI50 is 0.0258 µM (active) with BT-549 and 23.6 µM (inactive) in the assay on TK-10.
For `COC(=O)c1c(CC(Cc2ccc3c(c2)CCCC3)C(=O)O)ccc2c1CCCC2` (stereo not given), the GI50 was 16 µM (inactive) in the assay on UACC-257; 25.2 µM (inactive) in the assay on EKVX; 40.7 µM (inactive) in the assay on SNB-19; 34.1 µM (inactive) in the assay with A549; 36.1 µM (inactive) in the assay on 786-0; 36.8 µM (inactive) with IGROV-1. For the same compound, the GI50 was 43.2 µM (inactive) with MDA-N; 25 µM (inactive) in the assay on A498; 31.3 µM (inactive) in the assay with Malme-3M; 18.8 µM (inactive) in the assay on OVCAR-3; 34.7 µM (inactive) with SK-MEL-28; 45.4 µM (inactive) in the assay with CCRF-CEM. The GI50 in the assay with SF-295 is 32.6 µM (inactive); in the assay on UACC-62, 22.4 µM (inactive); in the assay with SK-MEL-5, 34.4 µM (inactive); with NCI-H522 it was 11.6 µM (inactive); in the assay with NCI/ADR-RES it was 17.9 µM (inactive); in the assay on SNB-75, 36.4 µM (inactive). Also, the GI50 is 40.9 µM (inactive) with BT-549 and 36.1 µM (inactive) in the assay with TK-10.
As for `CN(C)Cc1c[nH]c2ncnc(O)c12`, the GI50 with UACC-257 was 23 µM (inactive); with EKVX, 98.2 µM (inactive); in the assay with SNB-19 it was 70.1 µM (inactive); in the assay with A549 it was 86.5 µM (inactive); with 786-0, 23.2 µM (inactive); with IGROV-1 it was 35 µM (inactive). Besides, the GI50 in the assay on MDA-N was 23.1 µM (inactive); in the assay on A498 it was > 100 µM (inactive); in the assay on Malme-3M, 77.1 µM (inactive); in the assay with OVCAR-3, > 100 µM (inactive); in the assay on SK-MEL-28, 46.1 µM (inactive); with CCRF-CEM, 19.2 µM (inactive). The GI50 in the assay on SF-295 is > 100 µM (inactive); with UACC-62, 20.9 µM (inactive); with SK-MEL-5, 53.7 µM (inactive); in the assay on NCI-H522, > 100 µM (inactive); in the assay with NCI/ADR-RES, 62.7 µM (inactive); in the assay with SNB-75 it was 33.3 µM (inactive). The GI50 with BT-549 is > 100 µM (inactive); with TK-10, 37.7 µM (inactive).
For `CCOC(=O)Oc1cc2c(c(OC)c1OC)-c1ccc(SC)c(=O)cc1C(NC(=O)C(F)(F)F)CC2` (stereo not given), the GI50 with UACC-257 is 0.00223 µM (active); in the assay with EKVX, 0.201 µM (active); in the assay with SNB-19 it was 0.00316 µM (active); with A549, 0.00555 µM (active); in the assay on 786-0, 0.0017 µM (active); in the assay on IGROV-1 it was 0.0022 µM (active). Moreover, the GI50 was < 0.001 µM (active) in the assay with MDA-N; 0.00133 µM (active) in the assay on A498; < 0.001 µM (active) in the assay with Malme-3M; < 0.001 µM (active) in the assay on OVCAR-3; < 0.001 µM (active) in the assay with SK-MEL-28; < 0.001 µM (active) in the assay on CCRF-CEM. Further, the GI50 is < 0.001 µM (active) in the assay on SF-295; 0.00108 µM (active) in the assay on UACC-62; < 0.001 µM (active) with SK-MEL-5; < 0.001 µM (active) in the assay on NCI-H522; 0.0102 µM (active) in the assay on NCI/ADR-RES; < 0.001 µM (active) with SNB-75. The GI50 with BT-549 is 0.1 µM (active); in the assay with TK-10, > 10 µM (inactive).
As for `C=CC(=O)N1C/C(=C\c2ccc(F)cc2)C(=O)/C(=C/c2ccc(F)cc2)C1`, the GI50 was 1.19 µM (inactive) with UACC-257; 0.887 µM (active) in the assay with EKVX; 0.944 µM (active) in the assay with SNB-19; 0.979 µM (active) with A549; 0.222 µM (active) with 786-0; 0.437 µM (active) with IGROV-1. Further, the GI50 is 0.157 µM (active) with MDA-N; 0.568 µM (active) in the assay on A498; 0.735 µM (active) in the assay with Malme-3M; 0.36 µM (active) in the assay on OVCAR-3; 0.634 µM (active) in the assay on SK-MEL-28; 0.0883 µM (active) with CCRF-CEM. The GI50 is 0.44 µM (active) in the assay on SF-295; 0.142 µM (active) in the assay on UACC-62; 0.811 µM (active) in the assay with SK-MEL-5; 0.476 µM (active) with NCI-H522; 0.365 µM (active) with NCI/ADR-RES; 0.35 µM (active) in the assay on SNB-75. Moreover, the GI50 is 0.336 µM (active) with BT-549 and 1 µM (active) with TK-10.
Turning to `CC(C)C(/C=C/c1ccccc1)=N\NC(=S)NN`, the GI50 with UACC-257 is > 100 µM (inactive); in the assay on EKVX, 38 µM (inactive); with SNB-19, > 100 µM (inactive); with A549 it was 51.1 µM (inactive); with 786-0, 56.1 µM (inactive); in the assay on IGROV-1, 67.8 µM (inactive). Moreover, the GI50 was 26.6 µM (inactive) in the assay on MDA-N; > 100 µM (inactive) in the assay with A498; > 100 µM (inactive) in the assay on Malme-3M; 21.3 µM (inactive) in the assay with OVCAR-3; > 100 µM (inactive) with SK-MEL-28; 3.93 µM (inactive) in the assay with CCRF-CEM. For the same compound, the GI50 is 67.6 µM (inactive) with SF-295; 35.3 µM (inactive) in the assay with UACC-62; 33 µM (inactive) with SK-MEL-5; 16.7 µM (inactive) in the assay on NCI-H522; 41.6 µM (inactive) in the assay on NCI/ADR-RES; > 100 µM (inactive) with SNB-75. In addition, the results for the GI50 in the assay with BT-549 and with TK-10 were > 96.2 µM (inactive) and > 100 µM (inactive), respectively.
On to `NNc1nc2ccccc2c(=O)n1NC(=O)C(=O)Nc1cccc(C(F)(F)F)c1`, for which the GI50 was > 100 µM (inactive) in the assay with UACC-257; > 100 µM (inactive) in the assay with EKVX; > 100 µM (inactive) with SNB-19; > 100 µM (inactive) with A549; > 100 µM (inactive) in the assay on 786-0; 47.6 µM (inactive) with IGROV-1. Moreover, the GI50 in the assay on MDA-N, with A498, in the assay on Malme-3M, in the assay on OVCAR-3, with SK-MEL-28 and in the assay with CCRF-CEM was > 100 µM (inactive) throughout. The GI50 in the assay with SF-295, in the assay on UACC-62, in the assay on SK-MEL-5, with NCI-H522, in the assay on NCI/ADR-RES and in the assay with SNB-75 was > 100 µM (inactive) in each case. Also, the GI50 in the assay on BT-549 and in the assay on TK-10 was > 100 µM (inactive) throughout.
Regarding `Cc1nc2ccccc2n1Cc1ccc(NC(=S)NC2CCCCC2)cc1`, the GI50 is 13.5 µM (inactive) with UACC-257; 12.3 µM (inactive) in the assay on EKVX; 32.8 µM (inactive) in the assay on SNB-19; 17.4 µM (inactive) in the assay with A549; 36.9 µM (inactive) in the assay with 786-0; 20 µM (inactive) in the assay on IGROV-1. For the same compound, the GI50 with MDA-N is 5.79 µM (inactive); in the assay with A498 it was 33.6 µM (inactive); with Malme-3M, 21.7 µM (inactive); with OVCAR-3, 10.8 µM (inactive); in the assay with SK-MEL-28, 29.7 µM (inactive); in the assay on CCRF-CEM, 10 µM (inactive). The GI50 with SF-295 is 10.1 µM (inactive); in the assay on UACC-62, 6.3 µM (inactive); in the assay with SK-MEL-5, 4.14 µM (inactive); in the assay with NCI-H522, 8.34 µM (inactive); in the assay on NCI/ADR-RES, 35.6 µM (inactive); in the assay with SNB-75, 24 µM (inactive). In addition, the GI50 is 15.4 µM (inactive) with BT-549 and > 100 µM (inactive) with TK-10.
On to `CN(CCNC(=O)c1cn(C)c2c1ccc1cc(Cl)ccc12)CCNC(=O)c1cn(C)c2c1ccc1cc(Cl)ccc12`, for which the GI50 in the assay on UACC-257 was 6.38 µM (inactive); in the assay on EKVX, 1.94 µM (inactive); with SNB-19 it was 1.83 µM (inactive); in the assay on A549, 1.92 µM (inactive); in the assay on 786-0, 1.99 µM (inactive); in the assay with IGROV-1, 3.57 µM (inactive). In addition, the GI50 was 1.95 µM (inactive) in the assay on MDA-N; 3.71 µM (inactive) with A498; 2.21 µM (inactive) in the assay on Malme-3M; 2.4 µM (inactive) in the assay on OVCAR-3; 5.85 µM (inactive) in the assay with SK-MEL-28; 5.74 µM (inactive) in the assay on CCRF-CEM. For the same compound, the GI50 with SF-295 was 1.86 µM (inactive); in the assay on UACC-62 it was 5.97 µM (inactive); in the assay on SK-MEL-5 it was 10.9 µM (inactive); in the assay on NCI-H522 it was 1.85 µM (inactive); in the assay with NCI/ADR-RES, 2.05 µM (inactive); in the assay with SNB-75, 1.68 µM (inactive). Moreover, the GI50 in the assay with BT-549 was 3.43 µM (inactive); with TK-10, 7.13 µM (inactive).
